Test results published in ChEMBL document CHEMBL3351695, “Synthesis of novel 10-hydroxycamptothecin derivatives utilizing topotecan hydrochloride as ortho-quinonemethide precursor” (Bioorg Med Chem, 2015).
Structures can show the parent of a compound that is named as a salt. Active and inactive are the calls of the source. The rule behind the calls is not given here.

Key:
[1] = target: T1, DNA topoisomerase 1 (Homo sapiens) (UniProt P11387); assay: Inhibition of purified Topo 1 (unknown origin)-mediated supercoiled pBR322 DNA cleavage at 12.5 uM after 15 mins by agarose gel electrophoresis
T1 sequence (whole entry): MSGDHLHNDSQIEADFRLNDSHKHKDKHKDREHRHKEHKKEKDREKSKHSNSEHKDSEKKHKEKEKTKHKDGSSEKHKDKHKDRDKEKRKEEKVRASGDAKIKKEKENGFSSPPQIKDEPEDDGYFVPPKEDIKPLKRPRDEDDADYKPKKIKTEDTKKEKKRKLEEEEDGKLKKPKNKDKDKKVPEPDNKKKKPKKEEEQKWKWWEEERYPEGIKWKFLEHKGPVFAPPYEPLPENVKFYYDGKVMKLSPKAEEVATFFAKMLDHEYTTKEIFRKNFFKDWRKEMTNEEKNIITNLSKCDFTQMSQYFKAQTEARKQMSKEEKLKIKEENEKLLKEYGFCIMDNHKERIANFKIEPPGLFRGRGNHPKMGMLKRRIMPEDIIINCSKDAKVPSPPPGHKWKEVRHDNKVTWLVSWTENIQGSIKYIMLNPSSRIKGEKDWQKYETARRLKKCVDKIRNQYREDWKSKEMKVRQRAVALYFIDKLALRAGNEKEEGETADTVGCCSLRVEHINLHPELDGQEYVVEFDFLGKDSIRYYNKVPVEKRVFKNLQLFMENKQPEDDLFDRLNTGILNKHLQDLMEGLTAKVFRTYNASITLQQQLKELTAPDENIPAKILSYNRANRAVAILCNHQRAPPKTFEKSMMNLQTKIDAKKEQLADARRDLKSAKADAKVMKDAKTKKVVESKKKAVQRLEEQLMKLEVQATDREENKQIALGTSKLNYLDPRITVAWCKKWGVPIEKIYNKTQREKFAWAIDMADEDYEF

[2] = Antiproliferative activity against human SGC7901 cells after 48 hrs by CCK8 assay; type: functional, cell-based; settings: SGC-7901, 48 h
[3] = system: KB; assay: Antiproliferative activity against human KB cells after 48 hrs by CCK8 assay; type: functional, cell-based
[4] = system: HepG2; assay: Antiproliferative activity against human HepG2 cells after 48 hrs by CCK8 assay; type: functional, cell-based; settings: HepG2, 48 h
[5] = Antiproliferative activity against human HCT8 cells after 48 hrs by CCK8 assay; type: functional, cell-based; settings: HCT-8, 48 h
[6] = system: SGC-7901; assay: Ratio of 10-hydroxycamptothecin IC50 to compound IC50 for human SGC7901 cells after 48 hrs by CCK8 assay; type: functional

CC[C@@]1(O)C(=O)OCc2c1cc1n(c2=O)Cc2cc3cc(O)ccc3nc2-1 [HYDROXYCAMPTOTHECIN]
inhibition [1]: Active | IC50 [2]: 835 nM | IC50 [3]: 128 nM | IC50 [4]: 499 nM | IC50 [5]: 181 nM

CC[C@@]1(O)C(=O)OCc2c1cc1n(c2=O)Cc2cc3c(CN(C)C)c(O)ccc3nc2-1 [TOPOTECAN HYDROCHLORIDE]
IC50 [2]: 2290 nM | IC50 [3]: 2280 nM | IC50 [4]: 4210 nM | IC50 [5]: 1880 nM

CC[C@@]1(O)C(=O)OCc2c1cc1n(c2=O)Cc2cc3c(CSC(C)C)c(O)ccc3nc2-1
inhibition [1]: Active | IC50 [2]: 993 nM | IC50 [3]: 994 nM | IC50 [4]: 351 nM | IC50 [5]: 406 nM

CCSCc1c(O)ccc2nc3c(cc12)Cn1c-3cc2c(c1=O)COC(=O)[C@]2(O)CC
IC50 [2]: 549 nM | IC50 [3]: 2190 nM | IC50 [4]: 595 nM | IC50 [5]: 282 nM

CC[C@@]1(O)C(=O)OCc2c1cc1n(c2=O)Cc2cc3c4c(ccc3nc2-1)OC(OCC(C)C)CC4 (some centres not stated)
IC50 [2]: 344 nM | IC50 [3]: 1140 nM | IC50 [4]: 387 nM | IC50 [5]: 471 nM

CC[C@@]1(O)C(=O)OCc2c1cc1n(c2=O)Cc2cc3c(CSCCC(=O)O)c(O)ccc3nc2-1
inhibition [1]: inactive | IC50 [2]: 40800 nM | IC50 [3]: > 100000 nM | IC50 [4]: 89000 nM | IC50 [5]: 30300 nM

CC[C@@]1(O)C(=O)OCc2c1cc1n(c2=O)Cc2cc3c(CSC(C)(C)C)c(O)ccc3nc2-1
IC50 [2]: 3140 nM | IC50 [3]: 1410 nM | IC50 [4]: 762 nM | IC50 [5]: 1430 nM

CCCCOC1CCc2c(ccc3nc4c(cc23)Cn2c-4cc3c(c2=O)COC(=O)[C@]3(O)CC)O1 (some centres not stated)
inhibition [1]: inactive | IC50 [2]: 772 nM | IC50 [3]: 950 nM | IC50 [4]: 145 nM | IC50 [5]: 317 nM

CC[C@@]1(O)C(=O)OCc2c1cc1n(c2=O)Cc2cc3c4c(ccc3nc2-1)OC(O)CC4 (some centres not stated)
inhibition [1]: Active | IC50 [2]: 536 nM | IC50 [3]: 777 nM | IC50 [4]: 184 nM | IC50 [5]: 567 nM

CCOC1CCc2c(ccc3nc4c(cc23)Cn2c-4cc3c(c2=O)COC(=O)[C@]3(O)CC)O1 (some centres not stated)
IC50 [2]: 413 nM | IC50 [3]: 1480 nM | IC50 [4]: 265 nM | IC50 [5]: 401 nM

CC[C@@]1(O)C(=O)OCc2c1cc1n(c2=O)Cc2cc3c4c(ccc3nc2-1)O[C@@H]1OCCC[C@H]1C4
IC50 [2]: 255 nM | Ratio IC50 [6]: 4 | IC50 [3]: 1230 nM | IC50 [4]: 266 nM | IC50 [5]: 204 nM

CC[C@@]1(O)C(=O)OCc2c1cc1n(c2=O)Cc2cc3c(CSCC(=O)OC)c(O)ccc3nc2-1
IC50 [2]: 9020 nM | IC50 [3]: 12900 nM | IC50 [4]: 3200 nM | IC50 [5]: 3090 nM

CC[C@@]1(O)C(=O)OCc2c1cc1n(c2=O)Cc2cc3c(CSC)c(O)ccc3nc2-1
IC50 [2]: 2170 nM | IC50 [3]: 19300 nM | IC50 [4]: 70400 nM | IC50 [5]: 1220 nM

CCN(CC)CCSCc1c(O)ccc2nc3c(cc12)Cn1c-3cc2c(c1=O)COC(=O)[C@]2(O)CC
IC50 [2]: 10400 nM | IC50 [3]: 32500 nM | IC50 [4]: 5090 nM | IC50 [5]: 21900 nM

CC[C@@]1(O)C(=O)OCc2c1cc1n(c2=O)Cc2cc3c4c(ccc3nc2-1)O[C@@H]1OCC[C@H]1C4
inhibition [1]: inactive | IC50 [2]: 182 nM | Ratio IC50 [6]: 4 | IC50 [3]: 1710 nM | IC50 [4]: 332 nM | IC50 [5]: 203 nM

CCCSCc1c(O)ccc2nc3c(cc12)Cn1c-3cc2c(c1=O)COC(=O)[C@]2(O)CC
IC50 [2]: 2820 nM | IC50 [3]: 2170 nM | IC50 [4]: 734 nM | IC50 [5]: 746 nM
